From ChEMBL document CHEMBL1201862, “PubChem BioAssay data set” (2004)
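Five compound concentrations were applied to cells in 96-well plates for 48 hours; endpoints were derived by simple linear interpolation of the resulting dose-response curve. Abbreviation: GI50, concentration required for 50% inhibition of growth.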 Active and inactive are the calls of the source. Rule as the data show it: active = GI50 up to about 1.1 µM and inactive = higher.

Assays:
Test in all cases: DTP human tumour cell line panel, 48 h
CCRF-CEM = test system: CCRF-CEM
COLO 205 = test system: COLO 205
HCT-116 = test system: HCT-116
HT-29 = test system: HT-29
KM12 = test system: KM12
MOLT-4 = test system: MOLT-4
Malme-3M = test system: Malme-3M
OVCAR-3 = test system: OVCAR-3
OVCAR-5 = test system: OVCAR-5
RXF 393 = test system: RXF 393
SF-268 = test system: SF-268
SF-539 = test system: SF-539
SN12C = test system: SN12C
SNB-19 = test system: SNB-19
SW-620 = test system: SW-620
TK-10 = test system: TK-10
U-251 = test system: U-251
UACC-62 = test system: UACC-62
SK-OV-3 = test system: SK-OV-3

Measured: GI50

O=C1c2ccccc2-c2cccc3ccc(Cc4ccccc4)c1c23
inactive: CCRF-CEM > 100 µM | COLO 205 > 100 µM | HCT-116 > 100 µM | HT-29 > 100 µM | KM12 > 100 µM | MOLT-4 > 100 µM | Malme-3M > 100 µM | OVCAR-3 > 100 µM | OVCAR-5 > 100 µM | RXF 393 > 100 µM | SF-268 > 100 µM | SF-539 > 100 µM | SN12C > 100 µM | SNB-19 > 100 µM | SW-620 > 100 µM | TK-10 > 100 µM | U-251 > 100 µM | UACC-62 > 100 µM

CN(C)CCCNc1ccnc2c([N+](=O)[O-])cccc12
inactive: CCRF-CEM 34.3 µM | COLO 205 2.37 µM | HCT-116 15.3 µM | HT-29 3.56 µM | KM12 24.9 µM | MOLT-4 21.8 µM | Malme-3M 2.52 µM | OVCAR-3 3.56 µM | OVCAR-5 > 10 µM | SF-268 19.1 µM | SF-539 20.7 µM | SK-OV-3 3.85 µM | SN12C 14.6 µM | SNB-19 23.4 µM | SW-620 15.2 µM | TK-10 > 100 µM | U-251 30.2 µM

N#C/N=C1\NCCC(=O)N1CCc1c[nH]c2ccccc12
inactive: CCRF-CEM > 100 µM | COLO 205 > 100 µM | HCT-116 > 100 µM | HT-29 > 100 µM | KM12 > 100 µM | MOLT-4 > 100 µM | OVCAR-3 > 100 µM | RXF 393 > 100 µM | SF-268 > 100 µM | SF-539 > 100 µM | SK-OV-3 > 100 µM | SN12C > 100 µM | SNB-19 > 100 µM | SW-620 > 100 µM | TK-10 > 100 µM | UACC-62 > 100 µM

COc1ccccc1/C=C(\C#N)c1ccccc1
inactive: CCRF-CEM 17.7 µM | COLO 205 15.6 µM | HCT-116 29.1 µM | HT-29 29.9 µM | KM12 18.5 µM | MOLT-4 16.6 µM | OVCAR-3 19.5 µM | OVCAR-5 > 100 µM | RXF 393 27.7 µM | SF-268 82.8 µM | SF-539 34.8 µM | SK-OV-3 26.7 µM | SN12C 49.1 µM | SW-620 23.7 µM | TK-10 40.7 µM | U-251 24.6 µM | UACC-62 44.9 µM

COc1ccc2c(c1)OCCCN(C)OC2c1ccccc1 (stereo not given)
inactive: COLO 205 > 100 µM | HCT-116 > 100 µM | HT-29 > 100 µM | KM12 > 100 µM | MOLT-4 > 100 µM | Malme-3M > 100 µM | OVCAR-3 > 100 µM | OVCAR-5 > 100 µM | RXF 393 > 100 µM | SF-268 > 100 µM | SF-539 > 100 µM | SK-OV-3 > 100 µM | SN12C > 100 µM | SNB-19 > 100 µM | SW-620 > 100 µM | TK-10 > 100 µM | U-251 > 100 µM | UACC-62 > 100 µM

O=C(c1ccccc1)c1oc2ccc(Br)cc2c1-c1cnn(-c2ccccc2)c1
inactive: CCRF-CEM > 100 µM | COLO 205 > 100 µM | HT-29 > 100 µM | KM12 > 100 µM | MOLT-4 > 100 µM | Malme-3M > 100 µM | OVCAR-3 > 100 µM | OVCAR-5 > 100 µM | RXF 393 > 100 µM | SF-268 > 100 µM | SK-OV-3 > 100 µM | SN12C > 100 µM | SNB-19 > 100 µM | SW-620 > 10 µM | TK-10 > 10 µM | UACC-62 > 100 µM

COC(=O)C(=O)C(C#N)c1c(Cl)cccc1Cl (stereo not given)
inactive: COLO 205 > 100 µM | HCT-116 > 100 µM | HT-29 > 100 µM | MOLT-4 > 100 µM | Malme-3M > 100 µM | OVCAR-3 > 100 µM | OVCAR-5 > 100 µM | RXF 393 > 100 µM | SF-268 > 100 µM | SF-539 > 100 µM | SK-OV-3 > 100 µM | SN12C > 100 µM | SNB-19 > 100 µM | SW-620 > 100 µM | TK-10 > 100 µM | UACC-62 > 100 µM

CCC(/C=C/c1ccccc1)=N\N=C(\C=C\c1ccccc1)CC
inactive: CCRF-CEM > 100 µM | COLO 205 > 100 µM | HCT-116 > 100 µM | HT-29 > 100 µM | KM12 > 100 µM | MOLT-4 > 100 µM | Malme-3M > 100 µM | OVCAR-3 > 100 µM | OVCAR-5 > 100 µM | SF-268 > 100 µM | SK-OV-3 > 100 µM | SN12C > 100 µM | SNB-19 > 100 µM | SW-620 > 100 µM | TK-10 > 100 µM | U-251 > 100 µM | UACC-62 > 100 µM

O=C1C2Cc3ccccc3CN2C(=O)N1CCN1CCOCC1 (stereo not given)
inactive: CCRF-CEM > 100 µM | COLO 205 > 100 µM | KM12 > 100 µM | MOLT-4 > 100 µM | Malme-3M > 100 µM | OVCAR-3 > 100 µM | OVCAR-5 > 100 µM | SF-268 > 100 µM | SF-539 > 100 µM | SN12C > 100 µM | SNB-19 > 100 µM | SW-620 > 100 µM | TK-10 > 100 µM | U-251 > 100 µM | UACC-62 > 100 µM
